This note sets out measurements from patent US5747235A, “Silver halide light sensitive emulsion layer having enhanced photographic sensitivity” (Eastman Kodak Company, priority 1996, dated 1998).

Data set [1] can be described thus: Example 7: photographic speed and fog with/without HB3, 365 nm exposure, emulsion T-2. The note with it: emulsions containing red or blue sensitizing dye and electron donor. How it is done:
(§1) For photographic evaluation, each of the coating strips was exposed for 0.1 sec to a 365 nm emission line of a Hg lamp filtered through a Kodak Wratten filter number 18A and a step wedge ranging in density from 0 to 4 density units in 0.2 density steps. The exposed film strips were developed for 6 min in Kodak Rapid X-ray Developer (KRX). S365, relative sensitivity at 365 nm, was evaluated at a density of 0.2 units above fog.
(§2) An AgBrI tabular silver halide emulsion (Emulsion T-2) was prepared containing 4.05% total I distributed such that the central portion of the emulsion grains contained 1.5% I and the perimeter area contained substantially higher I, as described by Chang et. al., U.S. Pat. No. 5,314,793. […] This emulsion was precipitated using deionized gelatin. The emulsion was sulfur sensitized by adding 8.5×10^-6 mole 1,3-dicarboxymethyl-1,3-dimethyl-2-thiourea /mole Ag at 40° C.; the temperature was then raised to 60° C. at a rate of 5° C./3 min and the emulsions held for 20 min before cooling to 40° C. The chemically sensitized emulsion was then used to prepare coatings containing the fragmentable two-electron donor compounds. […] Where present, the blue sensitizing dye D-I or the red sensitizing dye D-II were added from methanol solution to the emulsion at 40° C. after the chemical sensitization and disulfocatechol addition. The fragmentable two-electron donor compounds were added to the emulsion at 40° C. and the coatings were prepared and tested as described in Example 1, except that the additional gelatin used to prepare the coatings described in Table III was deionized gelatin.
Where present the blue sensitizing dye D-I or the red sensitizing dye D-II were added from methanol solution to the emulsion at 40° C. after the chemical sensitization and disulfocatechol addition. The fragmentable two-electron donating compounds were then added to the emulsion and coatings prepared as described in Example 1, except that the additional gelatin used to prepare the coatings described in Table VII was deionized gelatin. The coatings were tested for their response to a 365 nm exposure as described in Example 1.

A short description of data set [2]: Example 9: photographic speed and fog, 365 nm exposure, red dyed emulsion T-2. The note with it: for Fog / S365: dye II 0.86 x10^-3; for S365: undyed control=100, dyed control 62. How it is done:
as §1
An AgBrI tabular silver halide emulsion (Emulsion T-2) was prepared containing 4.05% total I distributed such that the central portion of the emulsion grains contained 1.5% I and the perimeter area contained substantially higher I, as described by Chang et. al., U.S. Pat. No. 5,314,793. […] This emulsion was precipitated using deionized gelatin. The emulsion was sulfur sensitized by adding 8.5×10^-6 mole 1,3-dicarboxymethyl-1,3-dimethyl-2-thiourea /mole Ag at 40° C.; the temperature was then raised to 60° C. at a rate of 5° C./3 min and the emulsions held for 20 min before cooling to 40° C. The chemically sensitized emulsion was then used to prepare coatings containing the fragmentable two-electron donor compounds. All of the experimental coating variations in Table III contained the hydroxybenzene 2,4-disulfocatechol (HB3) at a concentration of 13 mmole/ mole Ag, added to the melt before the addition of any further addenda. Where present, the blue sensitizing dye D-I or the red sensitizing dye D-II were added from methanol solution to the emulsion at 40° C. after the chemical sensitization and disulfocatechol addition. The fragmentable two-electron donor compounds were added to the emulsion at 40° C. and the coatings were prepared and tested as described in Example 1, except that the additional gelatin used to prepare the coatings described in Table III was deionized gelatin.
The sulfur sensitized AgBrI tabular emulsion T-2 as described in Example 3 was used to prepare coatings of the fragmentable two-electron donors S-15, S-14, S-13, and S-11, as described in Table IX. All of the experimental coating variations in Table IX contained the hydroxybenzene, 2,4-disulfocatechcol (HB3) at a concentration of 13 mmole/mole Ag, added to the melt before any further addenda. Where present, the red sensitizing dye D-II was added from methanol solution to the emulsion at 40° C. after the chemical sensitization and disulfocatechol addition. The fragmentable two-electron donor compounds were then added to the emulsion and coatings prepared and tested as described in Example I, except that the additional gelatin used to prepare the coatings described in Table IX was deionized gelatin.

A short description of data set [3]: oxidation potential E2 of radical X by laser flash photolysis. It counts as physicochemical. As to conditions: Table H; model compound, A and L replaced by alkyl. An excerpt: In this technique, the compound X-Y is oxidized by an electron transfer reaction initiated by a short laser pulse. The oxidized form of X-Y then undergoes the bond cleavage reaction to give the radical X^.cndot.. X^.cndot. is then allowed to interact with various electron acceptor compounds of known reduction potential. […] The experimental details are set forth more fully below. The oxidation potentials (E2) for radicals X^.cndot. for typical compounds useful in accordance with our invention are given in Table C. Where only limits on potentials could be determined, the following notation is used: <-0.90 V should be read as "more negative than -0.90 V" and >-0.40 V should be read as "less negative than -0.40 V".
(a) Oxidation Potential of Radical X.cndot.
The laser flash photolysis measurements were performed using a nanosecond pulsed excimer (Questek model 2620, 308 nm, ca. 20 ns, ca. 100 mJ) pumped dye laser (Lambda Physik model FL 3002). The laser dye was DPS (commercially available from Exciton Co.) in p-dioxane (410 nm, ca. 20 ns, ca. 10 mJ). The analyzing light source was a pulsed 150W xenon arc lamp (Osram XBO 150/W). The arc lamp power supply was a PRA model 302 and the pulser was a PRA model M-306. The pulser increased the light output by ca. 100 fold, for a time period of ca. 2-3 ms. The analyzing light was focussed through a small aperture (ca. 1.5 mm) in a cell holder designed to hold 1 cm^2 cuvettes. The laser and analyzing beams irradiated the cell from opposite directions and crossed at a narrow angle (ca. 15°). After leaving the cell, the analyzing light was collimated and focussed onto the slit (1 mm, 4 nm bandpass) of an ISA H-20 monochromator. The light was detected using 5 dynodes of a Hamamatsu model R446 photomultiplier. The output of the photomultiplier tube was terminated into 50 ohm, and captured using a Tektronix DSA-602 digital oscilloscope. The entire experiment is controlled from a personal computer.
The experiments were performed either in acetonitrile, or a mixture of 80% acetonitrile and 20% water. The first singlet excited state of a cyanoanthracene (A), which acted as the electron acceptor, was produced using the nanosecond laser pulse at 410 nm. […] Secondary electron transfer then occurred between B^.cndot.+ and the lower oxidation potential electron donor X-Y, to generate X-Y^.cndot.+ in high yield. For the investigations of the oxidation potentials of the radicals X^.cndot., typically the cyanoanthrancene concentration was ca. 2×10^-5 M to 10^-4 M the biphenyl concentration was ca. 0.1M. The concentration of the X-Y donor was ca. 10^-3 M. The rates of the electron transfer reactions are determined by the concentrations of the substrates. The concentrations used ensured that the A^.cndot.- and the X-Y^.cndot.+ were generated within 100 ns of the laser pulse. The radical ions could be observed directly by means of their visible absorption spectra. The kinetics of the photogenerated radical ions were monitored by observation of the changes in optical density at the appropriate wavelengths.
The reduction potential (Ered) of 9,10-dicyanoanthracene (DCA) is -0.91 V. In a typical experiment, DCA is excited and the initial photo-induced electron transfer from the biphenyl (B) to the DCA forms a DCA^.cndot.-, which is observed at its characteristic absorption maximum (λobs =705 nm), within ca. 20 ns of the laser pulse. Rapid secondary electron transfer occurs from X-Y to B^.cndot.+ to generate X-Y^.cndot.+, which fragments to give X^.cndot.. A growth in absorption is then observed at 705 nm with a time constant of ca. 1 microsecond, due to reduction of a second DCA by the X^.cndot.. The absorption signal with the microsecond growth time is equal to the size of the absorption signal formed within 20 ns.
If the oxidation potential of X^.cndot. is not sufficiently negative to reduce DCA, an estimate of its oxidation potential was obtained by using other cyanoanthracenes as acceptors. […]

Data set [4] is described as follows: Example 5: photographic speed and fog, 365 nm exposure, fragmenting vs non-fragmenting one-electron donors, emulsion T-2. On the set-up: Fog: unit not given here. The note with it: for sensitivity and fog change: undyed T-2 emulsion. The procedure: as §1, §2
Where present, the sensitizing dye D-II was added from methanol solution to the emulsion at 40° C. after the chemical sensitization but before the addition of the one-electron donating compound. The coatings were tested for their response to a 365 nm exposure as described in Example 1. For this exposure, the relative sensitivity was set equal to 100 for the control coating with no one-electron donating compound added.

Data set [5] can be described thus: fragmentation rate constant kfr by laser flash photolysis. It counts as physicochemical. The note with it: Table H; model compound, A and L replaced by alkyl. An excerpt: The kinetics of the bond cleavage or fragmentation reaction can be measured by conventional laser flash photolysis. […] The specific experimental apparatus we used to measure fragmentation rate constants and radical oxidation potentials is described in detail below.
(b) Fragmentation Rate Constant Determination
These absorptions were used to determine the kinetics of the fragmentation reactions of the radical cations of the X-Y. Excitation of 9,10-dicyanoanthracene (DCA) in the presence of biphenyl and the X-Y donor, as described above, results in the formation of the DCA^.cndot.- and the X-Y^.cndot.+. By using a concentration of X-Y of ca. 10^-2 M, the X-Y^.cndot.+ can be formed within ca. 20 ns of the laser pulse. […] The monitoring wavelengths used were somewhat different for the different donors, but were mostly around 470-530 nm. […] Alternatively, when the decay rate of the X-Y^.cndot.+ was less than 10^6 s^-1, the solutions were purged with oxygen.
The experiments measuring the fragmentation rate constants were performed in acetonitrile with the addition of 20% water, so that all of the salts could be easily solubilized. Most experiments were performed at room temperature. […] When this happened, the fragmentation rate constants were measured as a function of temperature, and the rate constant at room temperature determined by extrapolation.

A short description of data set [6]: oxidation potential E1 by cyclic voltammetry. It is filed as physicochemical. As to conditions: for E1 (V) for XY moiety: Table H, model compound, A and L replaced by alkyl; for E1 (V): Table V. How it is done: Oxidation potentials are well known and can be found, for example, in "Encyclopedia of Electrochemistry of the Elements", Organic Section, Volumes XI-XV, A. Bard and H. Lund (Editors) Marcel Dekker Inc., NY. (1984). E1 can be measured by the technique of cyclic voltammetry. In this technique, the electron donating compound is dissolved in a solution of 80%/20% by volume acetonitrile to water containing 0.1M lithium perchlorate. Oxygen is removed from the solution by passing nitrogen gas through the solution for 10 minutes prior to measurement. A glassy carbon disk is used for the working electrode, a platinum wire is used for the counter electrode, and a saturated calomel electrode (SCE) is used for the reference electrode. Measurement is conducted at 25° C. using a potential sweep rate of 0.1 V/sec. The oxidation potential vs. SCE is taken as the peak potential of the cyclic voltammetric wave.

[7] abbreviates: 0.044 x10^-3 mole/mole Ag, dye D-II 0.86 x10^-3.
Setting [8] is: 0.044 x10^-3 mole/mole Ag, dye D-II 0.86 x10^-3, dyed control 69.
Setting [9] is: 0.044 x10^-3 mole/mole Ag, no dye, no HB3.
Setting [10] is: 0.044 x10^-3 mole/mole Ag, no dye, no HB3, control=100.
[11] abbreviates: 0.14 x10^-3 mole/mole Ag, dye D-II 0.86 x10^-3.
Setting [12] is: 0.14 x10^-3 mole/mole Ag, dye D-II 0.86 x10^-3, dyed control 69.
Where [13] appears, read: 0.14 x10^-3 mole/mole Ag, no dye, no HB3.
[14] abbreviates: 0.14 x10^-3 mole/mole Ag, no dye, no HB3, control=100.

Consider `O=S(=O)(O)c1cc(O)c(O)c(S(=O)(=O)O)c1` [HB3, 2,4-disulfocatechol, reference compound], for which the “effect on fog” value in data set [1] was “the level of fog can be lowered”.
In data set [2] (0.007 x10^-3 mol/mol Ag), “N-(4-Carboxyethylphenyl)-N-(2-thioethyl-ethyl)alanine sodium salt [Compound S-15]” returned a Fog of 0.13 and an S365 of 95. In data set [2] (0.022 x10^-3 mol/mol Ag), this compound registered a Fog of 0.23 and an S365 of 105. In data set [2] (dye D-II), the “365 nm sensitivity of dyed emulsion” value is given as “restored to that of the undyed emulsion”.
For `CCSCCN(CCSCC)c1ccc(CC(=O)O)cc1` [Compound S-17, Sodium 2-(4-N,N-bis(ethylthioethyl)aminophenyl)acetate], the “E2 (V) for XY moiety” value in data set [3] is listed as below -0.5 V. Further, the Fog amounted to 0.11 in data set [4] (setting [7]), 0.05 in data set [4] (setting [9]), 0.11 in data set [4] (setting [11]) and 0.06 in data set [4] (setting [13]). Moreover, the S365 was 80 in data set [4] (setting [8]), 110 in data set [4] (setting [10]), 89 in data set [4] (setting [12]) and 120 in data set [4] (setting [14]). Further, the “sensitivity and fog change” value in data set [4] is reported as “increased the 365 nm sensitivity of the undyed emulsion”. Also, the “kfr (s^-1) for XY moiety” value in data set [5] was “≈ 3 × 10^5 s^-1”. For the same compound, the “E1 (V) for XY moiety” value in data set [6] is on record as 0.57 V. In data set [6], the “E1 (V)” value was 0.62 V.
Turning to `CCSCCNC(=O)CCN(CC)c1ccc(CC(=O)O)cc1` [Compound S-18], the “E2 (V) for XY moiety” value in data set [3] was below -0.5 V. The Fog in data set [4] (setting [7]) is listed as 0.05; in data set [4] (setting [9]), 0.05; in data set [4] (setting [11]), 0.06; in data set [4] (setting [13]), 0.06. The S365 in data set [4] (setting [8]) came to 95; in data set [4] (setting [10]), 135; in data set [4] (setting [12]), 107; in data set [4] (setting [14]), 148. In addition, in data set [4], the “sensitivity and fog change” value is given as “increased the 365 nm sensitivity of the undyed emulsion”. Moreover, the “kfr (s^-1) for XY moiety” value in data set [5] is listed as “≈ 3 × 10^5 s^-1”. Also, the “E1 (V) for XY moiety” value in data set [6] came out at 0.57 V. Moreover, the “E1 (V)” value in data set [6] is reported as 0.68 V.
